Laboratory results from DBAASP.
In brackets after ≈: the same amount, converted by molar mass. Several values for one entry are separate records, joined by “and”; a condition that tells them apart may be missing. Identical values can stand only once. Blank lines part the entries; values can stand above or below the compound they belong to.

Legend:
Assay in all cases: ≥ marks a high value that may be exact or a test limit, other limits are often not marked, values filed in µg/mL are converted to µM
[1] = system: Trichophyton mentagrophytes
[2] = system: Staphylococcus epidermidis NRRL B-4268
[3] = system: Sporothrix schenckii
[4] = system: Escherichia coli ATCC 10536
[5] = system: Aspergillus fumigatus
[6] = system: Klebsiella pneumoniae ATCC 27736
[7] = system: Candida albicans
[8] = system: Pseudomonas aeruginosa ATCC BAA-427
[9] = system: Bacillus subtilis ATCC 6633
[10] = system: Cryptococcus neoformans
[11] = system: Candida parapsilosis ATCC 22019
[12] = system: Staphylococcus aureus ATCC 9144
[13] = system: Staphylococcus aureus MR
[14] = system: Fusarium graminearum PH-1
[15] = system: Vibrio splendidus CIP 107715
[16] = system: Microbacterium maritypicum CIP 105733T
[17] = system: Staphylococcus aureus CIP 103428
[18] = system: Escherichia coli SBS 363
[19] = system: Staphylococcus haemolyticus
[20] = system: Micrococcus luteus CIP 5345
[21] = system: Corynebacterium stationis CIP 101282
[22] = system: Staphylococcus aureus SG511
[23] = system: Bacillus megaterium CIP 6620
[24] = system: Vibrio nigripulchritudo CIP 103195
[25] = system: Vibrio anguillarum ATCC 43308
[26] = system: Micrococcus luteus ATCC 49732
[27] = system: Escherichia coli ATCC 25922
[28] = system: Pseudomonas aeruginosa ATCC 27853
[29] = system: Staphylococcus aureus ATCC 25923
[30] = system: Acinetobacter baumannii KCTC 2508
[31] = system: Klebsiella pneumoniae KCTC 2208
[32] = system: Klebsiella pneumoniae
[33] = system: Pseudomonas aeruginosa ATCC 9027
[34] = system: Staphylococcus epidermidis ATCC 14490
[35] = system: Candida tropicalis PCM 2681
[36] = system: Klebsiella pneumoniae ATCC 200603
[37] = system: Candida albicans ATCC 10231

SMILES: CC(C)C[C@H](NC(=O)[C@H](CCCCN)NC(=O)[C@H](CC(C)C)NC(=O)[C@H](Cc1ccccc1)NC(=O)[C@H](CCCN=C(N)N)NC(=O)[C@H](CCCN=C(N)N)NC(=O)[C@H](Cc1ccccc1)NC(=O)[C@H](Cc1c[nH]c2ccccc12)NC(=O)[C@H](CCCCN)NC(=O)[C@H](CCCN=C(N)N)NC(=O)[C@H](Cc1ccccc1)NC(=O)[C@H](CCCN=C(N)N)NC(=O)[C@H](CCCN=C(N)N)NC(=O)[C@@H](N)Cc1ccccc1)C(=O)N[C@@H](Cc1ccccc1)C(N)=O [FRRFRKWFRRFLKLF]
MIC [1]: 3 µM (≈ 6.61 µg/mL) | MIC [2]: 13.2 µM (≈ 29.1 µg/mL) | MIC [3]: 3 µM (≈ 6.61 µg/mL) | MIC [4]: 6 µM (≈ 13.2 µg/mL) | MIC [5]: 3 µM (≈ 6.61 µg/mL) | MIC [6]: 6 µM (≈ 13.2 µg/mL) | MIC [7]: 3.1 µM (≈ 6.83 µg/mL) | MIC [8]: 25 µM (≈ 55.1 µg/mL) | MIC [9]: 11.3 µM (≈ 24.9 µg/mL) | MIC [10]: 6.1 µM (≈ 13.4 µg/mL) | MIC [11]: 3 µM (≈ 6.61 µg/mL) | MIC [12]: 6.25 µM (≈ 13.8 µg/mL) | MIC [13]: 25 µM (≈ 55.1 µg/mL)

SMILES: C[C@@H]1NC(=O)[C@@H](NC(=O)[C@@H]2CCCN2C(=O)CN)CSSC[C@@H](C(=O)O)NC(=O)[C@H](CC(N)=O)NC(=O)[C@H](Cc2cnc[nH]2)NC(=O)[C@H](CC(=O)O)NC(=O)[C@H](CO)NC1=O [GPCASDHNC]
MIC [14]: ≥ 48 µM

SMILES: NC(=O)CC[C@H](NC(=O)[C@H](CCC(N)=O)NC(=O)[C@H](CCC(=O)O)NC(=O)[C@H](Cc1ccccc1)NC(=O)[C@H](CCC(=O)O)NC(=O)[C@H](Cc1c[nH]c2ccccc12)NC(=O)[C@H](CCC(=O)O)NC(=O)[C@H](Cc1ccccc1)NC(=O)[C@H](CCCN=C(N)N)NC(=O)[C@H](CCC(N)=O)NC(=O)[C@@H](N)CCC(N)=O)C(N)=O [QQRFEWEFEQQ]
MIC [33]: > 329 µM | MIC [34]: ≥ 329 µM | MIC [35]: ≥ 329 µM | MIC [36]: ≥ 329 µM | MIC [27]: > 329 µM | MIC [29]: > 329 µM | MIC [9]: ≥ 329 µM | MIC [37]: > 329 µM

More lines, main results first:

MIC [15]: ≥ 40 µM | MIC [16]: 20 µM (≈ 36.8 µg/mL) | MIC [17]: 20 µM (≈ 36.8 µg/mL) | MIC [18]: ≥ 80 µM | MIC [20]: ≥ 80 µM | MIC [21]: 20 µM (≈ 36.8 µg/mL) | MIC [22]: 20 µM (≈ 36.8 µg/mL) | MIC [23]: 20 µM (≈ 36.8 µg/mL) | MIC [24]: ≥ 40 µM
SMILES: CC[C@H](C)[C@H](NC(=O)[C@@H]1CCCN1C(=O)CN)C(=O)N[C@@H](CCCN=C(N)N)C(=O)N[C@@H](CCCN=C(N)N)C(=O)N1CCC[C@H]1C(=O)N[C@@H](CCCCN)C(=O)N1CCC[C@H]1C(=O)N[C@@H](CCCN=C(N)N)C(=O)N1CCC[C@H]1C(=O)N[C@@H](CCCN=C(N)N)C(=O)N[C@@H](CCC(N)=O)C(=O)N[C@@H](CCCN=C(N)N)C(=O)N1CCC[C@H]1C(=O)N[C@@H](CCC(=O)O)C(=O)O [GPIRRPKPRPRQRPE]
MIC [19]: 20 µM (≈ 36.8 µg/mL)

MIC [25]: 5.09 µM (≈ 12.5 µg/mL) | MIC [26]: 2.57 µM (≈ 6.3 µg/mL) | MIC [27]: 2.57 µM (≈ 6.3 µg/mL) | MIC [28]: 32 µM (≈ 78.6 µg/mL) | MIC [29]: 2.57 µM (≈ 6.3 µg/mL) | MIC [30]: 16 µM (≈ 39.3 µg/mL) | MIC [31]: 16 µM (≈ 39.3 µg/mL) | MIC [32]: > 32 µM and 16 µM
SMILES: CC[C@H](C)[C@H](NC(=O)[C@@H](NC(=O)[C@H](Cc1cnc[nH]1)NC(=O)[C@H](CCCN=C(N)N)NC(=O)[C@H](C)NC(=O)[C@H](CCCN=C(N)N)NC(=O)[C@H](CC(C)C)NC(=O)[C@H](CO)NC(=O)[C@H](C)NC(=O)[C@H](CS)NC(=O)[C@H](CC(C)C)NC(=O)[C@@H](N)CC(N)=O)[C@@H](C)O)C(=O)N1CCC[C@H]1C(=O)N[C@@H](CCC(N)=O)C(=O)N[C@@H](CS)C(=O)N[C@@H](CCCCN)C(=O)N[C@@H](CCCCN)C(=O)N[C@@H](Cc1ccccc1)C(=O)NCC(=O)N[C@@H](CCCN=C(N)N)C(=O)N[C@@H](CCCN=C(N)N)C(=O)O [NLCASLRARHTIPQCKKFGRR]
